Source: patent US6863883B1, “Permanent wave agent composition having dyeing effect and method for dyeing hair using the same” (Henkel Lion Cosmetics Co. Ltd., priority 1998, dated 2005)

How the values were obtained:
[1] = Dyeability test of second solution containing a dye on goat hair; design: key: ⊚: Deeply dyed and an original white color of the goat hair is not prominent; ◯: Dyed to a degree that an original white color of the goat hair is not prominent; Δ: Dyed, but prominent in an original white color of the goat hair; X: Only an original white color of the goat hair; conditions: first solution 30° C. 15 minutes, then second solution with 0.2% dye
Method: To approximately 2 g of goat hair, approximately 2 g of a first solution of a permanent waving composition was applied, and the hair was allowed to stand in a constant temperature bath at 30° C. for 15 minutes. Then, approximately 2 g of the same filtered second solution of a permanent waving composition as that described in Test Example 1 was applied to the hair, and the hair was shampooed and treated with a hair rinse conditioner, and adequately rinsed with water. After drying the hair, dyeability for the hair was evaluated.
(§1) Thereafter, the hair which was dyed in the dyeability test was allowed to stand for 24 hours after dyeing, then immersed into 300 ml of an aqueous solution containing 0.03/sodium polyoxyethylene (2 E.O.) alkyl (12, 13) ether sulfate at 80° C. for 10 minutes. Then, the hair was adequately rinsed with warm water, dried, and fastness was evaluated by observing dyeability for the hair after the test. The evaluation was conducted based on the following criteria: • ⊚: Deeply dyed and an original white color of the goat hair is not prominent • ◯: Dyed to a degree that an original white color of the goat hair is not prominent • Δ: Dyed, but prominent in an original white color of the goat hair • X: Only an original white color of the goat hair.

[2] = Stability with time of a second solution of a permanent waving composition containing a direct dye (storage at 45° C.); type: physicochemical; conditions: for pH (45° C.) Initial / pH (45° C.) 2 weeks / pH (45° C.) 4 weeks: 0.2% dye in second solution; for pH (45° C.) 2 weeks / pH (45° C.) 4 weeks: stored at 45° C.; for Ratio of dye that remains solubilized after 4 weeks at 45° C.: absorbance at maximum wavelength, initial value defined as 100%
Source text: Each of an acidic dye, tar-series pigment and cationic dye which are a direct dye was weighed out so as to be 0.2% by weight in terms of the active ingredient, and added to a second solution of a permanent waving composition formulated as shown in Table 1 to stir.
As the acidic dye. […] In the tar-series pigment, HC BLUE 2 and HC YELLOW 2 (manufactured by JAMS ROBINSON Inc.) were used. And, as the […] dye, (A): (1-methyl-1-paramethoxyphenyl)-2-(1-methane-4N-methylpyridinium)hydrazine chloride, (B): 4-dimethylaminophenylazo-2N— methyl-5N-methylimidazolium chloride and (C): 4-aminophenylazo-2N-methyl-5N-methylimidazo ium chloride (manufactured by Ciba Specialty Chemicals, Inc.) were used.
The sample was stored at 45° C., and stability of the sample with time was evaluated for solubility of the dye in the sample, pH, absorption spectra in a visible light range.
The evaluation for solubility of the dye was conducted based on the following criteria: • ◯: No change in solubility compared to that measured two weeks before; and • X: Precipitation of the dye
A pH was measured with a pH meter manufactured by HORIBA Inc. Limited. Moreover, the evaluation for the absorption spectra in the visible light range was conducted by measuring an absorbance at the maximum absorbance wavelength in the absorption spectra in the visible light range using HITACHI U-3210 (using a quartz cuvette having 10 mm optical path) and calculating a ratio of the dye that remains solubilized after 4 weeks by defining the initial measured solubilized value as 100%.

[3] = Fastness test of dyed goat hair (surfactant solution at 80° C. for 10 minutes); design: key: ⊚: Deeply dyed and an original white color of the goat hair is not prominent; ◯: Dyed to a degree that an original white color of the goat hair is not prominent; Δ: Dyed, but prominent in an original white color of the goat hair; X: Only an original white color of the goat hair; conditions: 24 hours after dyeing, surfactant solution 80° C. 10 minutes
Method: as §1

[4] = Effect of water content (propylene glycol) on dyeability (Test Example 6); design: species or system goat; conditions: 0.05% solution, pH 9
Source text: (§2) Thereafter, each 2 g of the first solution and the second solution not containing the dye was applied to the permanently waved hair under the same condition as that described above. After the treatment with the second solution, the hair was adequately washed with water, and 2 g of a 0.05/aqueous solution of the cationic dye (B) which had been adjusted to pH 9 was applied to the hair which had been permanently waved and the untreated hair, respectively, which were allowed to stand at a treatment temperature of 30° C. for a treatment period of 30 minutes. Then, the hair was shampooed and treated with a hair rinse conditioner, adequately rinsed with water and dried, and dyeability was evaluated. Dyeability was evaluated according to a brightness of JIS standard color chart. The smaller value thereof indicates higher dyeability.
0.05% aqueous solutions of a cationic dye (C), each containing 0, 10, 20, 30, 40 and 50% propylene glycol respectively, were adjusted to pH 9.4 g of each solution was applied to approximately 2 g of goat hair, and the goat hair was allowed to stand in a constant temperature bath at 30° C. for 30 minutes. Then, the hair was shampooed and treated with a hair rinse conditioner, and adequately washed with water and dyeability was evaluated according to the same manner as that described in Test Example 4.

[5] = Effect of pH of cationic dye solution on dyeability (Test Example 5); design: species or system goat; conditions: 0.05% aqueous solution, 30 minutes
Source text: as §2
A 0.05% aqueous solution of a cationic dye (C) was adjusted to pH 3, 5, 7, 9 or 11, and 4 g thereof was applied to approximately 2 g of goat hair. The, hair was allowed to stand in a constant temperature bath at 30° C. for 30 minutes. Then, the hair was shampooed and treated with a hair rinse conditioner, adequately washed with water and dried, and dyeability was evaluated according to the same manner as that described in Test Example 4.

Structure (SMILES)	Dyeability [1]	pH (45° C.) Initial [2]	pH (45° C.) 2 weeks [2]	pH (45° C.) 4 weeks [2]	Ratio of dye that remains solubilized after 4 weeks at 45° C. [2]	Fastness [3]	Dyeability (JIS brightness) ([4]; propylene glycol 0 wt %)	Dyeability (JIS brightness) ([4]; propylene glycol 10 wt %)	Dyeability (JIS brightness) ([4]; propylene glycol 20 wt %)	Dyeability (JIS brightness) ([4]; propylene glycol 30 wt %)	Dyeability (JIS brightness) ([4]; propylene glycol 40 wt %)	Dyeability (JIS brightness) ([4]; propylene glycol 50 wt %)	Dyeability (JIS brightness) ([5]; pH 3, 30° C.)	Dyeability (JIS brightness) ([5]; pH 5, 30° C.)	Dyeability (JIS brightness) ([5]; pH 7, 30° C.)	Dyeability (JIS brightness) ([5]; pH 9, 30° C.)	Dyeability (JIS brightness) ([5]; pH 11, 30° C.)	Stability with time in the second solution of the permanent waving composition ([2]; summary of Table 2, 45° C.)
COc1ccc(N(C)N=Cc2cc[n+](C)cc2)cc1 [cationic dye (A), (1-methyl-1-paramethoxyphenyl)-2-(1-methane-4N-methylpyridinium)hydrazine chloride]	⊚	6.43	6.42	6.42	99.6%	⊚												
O=S(=O)([O-])c1ccc(N=Nc2c(O)ccc3ccccc23)cc1.[Na+] [ORANGE 205]	Δ	6.44	6.43	6.45	98.7%	X												
Cn1cc[n+](C)c1N=Nc1ccc(N)cc1 [cationic dye (C), 4-aminophenylazo-2N-methyl-5N-methylimidazo ium chloride]	⊚	6.41	6.40	6.41	102.0%	⊚	6.5	6.8	7.0	7.7	8.5	9.0	6.5	6.0	5.7	5.3	5.0	
Nc1c(N=Nc2ccc([N+](=O)[O-])cc2)c(S(=O)(=O)[O-])cc2cc(S(=O)(=O)[O-])c(N=Nc3ccccc3)c(O)c12.[Na+].[Na+] [BLACK 401]	◯	6.43	6.44	6.45		X												
O=[N+]([O-])c1cc(N(CCO)CCO)ccc1NCCO [HC BLUE 2]	◯	6.43	6.44	6.15	0.00%	X												
O=[N+]([O-])c1ccccc1NCCO [HC YELLOW 2]	◯	6.43	6.42	6.44	97.6%	X												stable with time
Cc1ccc(Nc2ccc(O)c3c2C(=O)c2ccccc2C3=O)c(S(=O)(=O)[O-])c1.[Na+] [PURPLE 401]	X	6.54	6.52	6.54	92.2%	X												
